Measurements: ChEMBL document CHEMBL3217432, “Oxazole phosphonic acids as fructose 1,6-bisphosphatase inhibitors with potent glucose-lowering activity” (Medchemcomm, 2011)

What was measured:
[1] = target: T1, Fructose-1,6-bisphosphatase 1 (Homo sapiens, UniProt P09467); experiment: Inhibition of human liver FBPase
T1 sequence (P09467 whole entry): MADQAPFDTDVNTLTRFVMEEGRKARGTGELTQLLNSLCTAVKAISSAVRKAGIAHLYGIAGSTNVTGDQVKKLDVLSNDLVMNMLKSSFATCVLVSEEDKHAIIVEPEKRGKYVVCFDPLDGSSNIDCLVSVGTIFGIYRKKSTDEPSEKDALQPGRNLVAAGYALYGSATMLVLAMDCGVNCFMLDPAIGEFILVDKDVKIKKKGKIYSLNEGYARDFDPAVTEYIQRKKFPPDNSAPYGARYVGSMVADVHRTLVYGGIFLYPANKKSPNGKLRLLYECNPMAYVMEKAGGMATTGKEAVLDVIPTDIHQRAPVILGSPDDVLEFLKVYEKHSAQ

[2] = target: T2, Fructose-1,6-bisphosphatase 1 (Rattus norvegicus, UniProt P19112); experiment: Inhibition of rat liver FBPase
T2 sequence (P19112 whole entry): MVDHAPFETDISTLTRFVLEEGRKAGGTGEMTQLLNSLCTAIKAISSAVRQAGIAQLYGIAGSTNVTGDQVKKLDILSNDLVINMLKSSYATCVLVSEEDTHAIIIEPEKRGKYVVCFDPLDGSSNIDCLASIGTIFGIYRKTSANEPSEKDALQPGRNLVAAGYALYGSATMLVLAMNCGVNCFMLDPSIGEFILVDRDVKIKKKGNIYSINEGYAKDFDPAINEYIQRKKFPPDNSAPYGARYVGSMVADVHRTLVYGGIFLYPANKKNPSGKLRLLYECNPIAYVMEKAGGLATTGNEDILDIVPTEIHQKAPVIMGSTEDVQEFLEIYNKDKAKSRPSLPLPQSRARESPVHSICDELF

Rattus norvegicus = experiment: Antidiabetic activity in rat assessed as reduction of blood glucose level at 10 mg/kg, iv relative to control; assay type: functional; set-up: scale not given: the % may be the effect or the level left

Row | SMILES | IC50 [1] [µM] | IC50 [2] [µM] | Activity (Rattus norvegicus) [%]
1 | Nc1nc(-c2ccc(P(=O)(O)O)o2)c(Cc2cccs2)o1 | 0.26 | 3.75 | –
2 | CC(C)Sc1oc(N)nc1-c1ccc(P(=O)(O)O)o1 | 0.11 | 0.9 | 61
3 | COC(=O)c1oc(N)nc1-c1ccc(P(=O)(O)O)o1 | 0.067 | 3.9 | 0
4 | CCCCc1oc(N)nc1C(=O)OCP(=O)(O)O | 0.25 | 1.7 | 22
5 | CNc1nc(-c2ccc(P(=O)(O)O)o2)c(CC(C)C)o1 | 4.3 | – | –
6 | CCCc1oc(N)nc1C(=O)OCP(=O)(O)O | 0.28 | – | –
7 | Cc1nc(C(=O)OCP(=O)(O)O)c(C(F)(F)F)o1 | 10 | – | –
8 | CC(C)(C)C(=O)c1oc(N)nc1-c1ccc(P(=O)(O)O)o1 | 0.855 | – | –
9 | Nc1nc(-c2ccc(P(=O)(O)O)o2)c(CC2CCCCC2)o1 | 0.32 | 5.5 | –
10 | C=CCc1oc(N)nc1-c1ccc(P(=O)(O)O)o1 | 0.14 | 3 | 19
11 | C=Cc1nc(-c2ccc(P(=O)(O)O)o2)c(CC(C)C)o1 | 6.7 | – | –
12 | CNC(=O)c1oc(N)nc1-c1ccc(P(=O)(O)O)o1 | 1 | – | 0
13 | CCCCCc1oc(N)nc1-c1ccc(P(=O)(O)O)o1 | 0.21 | 2.7 | 7
14 | Nc1nc(-c2ccc(P(=O)(O)O)o2)co1 | 10 | – | –
15 | Nc1nc(C(=O)OCP(=O)(O)O)co1 | 7 | – | –
16 | Nc1nc(-c2ccc(P(=O)(O)O)o2)c(Cc2ccccc2)o1 | 0.9 | 10 | –
17 | CC(C)c1oc(N)nc1C(=O)OCP(=O)(O)O | 0.58 | – | –
18 | Nc1nc(-c2ccc(P(=O)(O)O)o2)c(Sc2ccccc2)o1 | 4 | – | –
19 | CC(C)Cc1oc(N)nc1-c1ccc(P(=O)(O)O)o1 | – | – | 51

Row | SMILES | IC50 [1] [µM] | IC50 [2] [µM] | Activity (Rattus norvegicus) [%]
20 | CC(C)Cc1ocnc1-c1ccc(P(=O)(O)O)o1 | 1.9 | – | –
21 | CCc1nc(-c2ccc(P(=O)(O)O)o2)c(CC(C)C)o1 | 0.95 | – | –
22 | CC(C)OC(=O)c1oc(N)nc1-c1ccc(P(=O)(O)O)o1 | 0.04 | – | 7
23 | CCCSc1oc(N)nc1-c1ccc(P(=O)(O)O)o1 | – | – | 61
24 | CCc1oc(N)nc1C(=O)OCP(=O)(O)O | 0.38 | – | –
25 | Nc1nc(-c2ccc(P(=O)(O)O)o2)c(-c2ccccc2)o1 | 0.16 | 2.5 | 8
26 | Nc1nc(-c2ccc(P(=O)(O)O)o2)c(C(=O)OCc2ccccc2)o1 | 0.085 | 2.25 | 0
27 | Cc1oc(N)nc1C(=O)OCP(=O)(O)O | 0.42 | – | –
28 | CC(C)(C)Sc1oc(N)nc1-c1ccc(P(=O)(O)O)o1 | 0.12 | 1.7 | –
29 | CCCCc1oc(N)nc1-c1ccc(P(=O)(O)O)o1 | 0.17 | 2.3 | 10
30 | CCSC(=O)c1oc(N)nc1-c1ccc(P(=O)(O)O)o1 | 0.03 | 2.3 | 51
31 | O=C(OCP(=O)(O)O)c1ncoc1-c1ccccc1 | 10 | – | –
32 | CCCCCc1oc(N)nc1C(=O)OCP(=O)(O)O | 0.35 | – | –
33 | CC(C)Cc1oc(O)nc1-c1ccc(P(=O)(O)O)o1 | 10 | – | –
34 | CCOC(=O)c1oc(N)nc1-c1ccc(P(=O)(O)O)o1 | – | – | 18
35 | CC(C)Cc1oc(C(C)C)nc1-c1ccc(P(=O)(O)O)o1 | 2.2 | – | –
36 | CC(C)Cc1oc(N(C)C)nc1-c1ccc(P(=O)(O)O)o1 | 2.1 | – | –
37 | CCNc1nc(-c2ccc(P(=O)(O)O)o2)c(CC(C)C)o1 | 10 | – | –
